Experiment [1] deals with human breast cancer cell line BT-474. Nature of the experiment: MTT tumor cell proliferation. The class given is cell-based. To be noted: Homo sapiens, 72 h. From the text: (§1) MTT colorimetric method was used to detect the inhibitory activity of a series of compounds (i.e. ZZY-001 to ZZY-016, a total of 16 kinds) of the embodiment of the present invention on the proliferation of tumor cells in vitro. The full name of MTT is 3-(4,5-dimethyl-2-thiazolyl)-2,5-diphenyl-2-H-tetrazolium romide, which is a yellow dye also known as thiazolyl blue. […] DMSO can dissolve Formazan deposited in cells and the absorbance value can be measured with a enzyme marker at a wavelength of 490 nm. In a certain range of cell number, the production of Formazan is proportional to the number of cells, so the number of living cells can be inferred according to the measured OD value.
(§2) The cell suspension was inoculated on a 96-well plate at 100 μl/well and cultured in a constant temperature CO2 incubator for 24 h. Then the tested drugs were added, 100 μl/well, and cultured for 72 h. MTT was added to a 96-well plate, 20 μl/well, and reacted for 4 h in the incubator. Absorb the supernatant, add DMSO, 150 μl/well and shake for 10 min on the plate shaker. The optical density (OD value) of each well was measured by enzyme marker at the wavelength of 490 nm.

Experiment [2] deals with mouse breast cancer cell 4T1. Nature of the experiment: MTT tumor cell proliferation. It is filed as cell-based. Particulars: Mus musculus, 72 h.
Text: as §1, §2

Experiment [3] has as its system mouse colon cancer cell CT26.WT. Nature of the experiment: MTT tumor cell proliferation. The class given is cell-based. Particulars: Mus musculus, 72 h.
Text: as §1, §2

In experiment [4] the test system is human colon adenocarcinoma cell HCT116. Nature of the experiment: MTT tumor cell proliferation. It is filed as cell-based. Particulars: Homo sapiens, HCT-116, 72 h.
Text: as §1, §2

The test system of experiment [5] is human breast cancer cell line MDA-MB-231. Nature of the experiment: MTT tumor cell proliferation. The class given is cell-based. To be noted: Homo sapiens, 72 h.
Text: as §1
In the experiments of this embodiment, the selected cell lines are human breast cancer cell line MDA-MB-231 and BT-474, human colon adenocarcinoma cell HCT116, mouse colon cancer cell CT26.WT, mouse breast cancer cell 4T1. During the test, the cells in logarithmic phase and in good condition were digested with 0.25% trypsin digestion solution to make the adherent cells fall off, and the cell suspension (suspension cells without trypsin digestion) was made by counting 2-4×10^4 cells/ml. The cell suspension was inoculated on a 96-well plate at 100 μl/well and cultured in a constant temperature CO2 incubator for 24 h. Then the tested drugs were added, 100 μl/well, and cultured for 72 h. MTT was added to a 96-well plate, 20 μl/well, and reacted for 4 h in the incubator. Absorb the supernatant, add DMSO, 150 μl/well and shake for 10 min on the plate shaker. The optical density (OD value) of each well was measured by enzyme marker at the wavelength of 490 nm. […]

Experiment [6] deals with T1, recombinant human LSD1 protein (Homo sapiens, UniProt O60341).
T1 construct: made in house; host or cells: E. coli
Nature of the experiment: In vitro LSD1 inhibitory activity, LSD1-HRP coupling reaction (Amplex Red). The class given is biochemical. Particulars: LSD1 enzyme activity in vitro; 30 min preincubation; H3K4Me2 peptide. The source says:
LSD1 activity was detected by using LSD1-HRP coupling reaction. […] During the reduction of H2O2 to H2O, Amplex Red acts as an electron donor and oxidizes to Resorufin for detection of fluorescence. […] Ampliflu™ Red, peroxidase, from horseradish required for the experiment was purchased from SIGMA; H3K4Me2 substrate peptide was purchased from GL Biochemical (Shanghai) Co., Ltd.

As to `Cc1ccc(C(=O)Nc2cc(N3CCNCC3)ccc2-c2ccc(/C=C/C(=O)NO)cc2C)cc1.Cl` [ZZY-003], the IC50 in experiment [1] amounted to 1.86 µM; in experiment [2], 2.38 µM; in experiment [3] it was 8.76 µM; in experiment [4], 0.265 µM; in experiment [5], 0.836 µM; in experiment [6], 0.44 µM.

By IC50 is commonly meant the concentration that gives 50% inhibition.

For the origin of these results see patent US20200331882A1, “COMPOUND FOR SIMULTANEOUSLY INHIBITING LSD1 AND HDAC TARGETS AND APPLICATION THEREOF” (PEKING UNIVERSITY SHENZHEN GRADUATE SCHOOL, priority 2018, published 2020).
